The results in this text go back to US12116343B2, “Inhibitors of APOL1 and methods of using same” (Vertex Pharmaceuticals Incorporated, priority 2020, dated 2024).

The structures appear in SMILES notation. Like-named read-outs stand apart in the source and are kept apart here.

In the assay the target is T1, G1 APOL1 (Homo sapiens, UniProt O14791, I384M/S342G).
T1 construct: expressed in transfected cells
T1 sequence (O14791 28-398 S342G/I384M): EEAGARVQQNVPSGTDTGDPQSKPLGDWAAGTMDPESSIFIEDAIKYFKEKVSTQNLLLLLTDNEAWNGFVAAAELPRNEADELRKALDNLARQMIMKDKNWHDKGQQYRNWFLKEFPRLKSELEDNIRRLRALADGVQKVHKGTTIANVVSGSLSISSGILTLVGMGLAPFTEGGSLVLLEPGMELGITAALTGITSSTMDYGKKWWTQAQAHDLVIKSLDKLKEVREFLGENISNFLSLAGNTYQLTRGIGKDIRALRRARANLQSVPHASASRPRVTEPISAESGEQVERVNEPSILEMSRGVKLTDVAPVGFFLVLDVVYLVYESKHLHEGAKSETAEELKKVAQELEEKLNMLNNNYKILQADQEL
The assay can be described thus: Acute APOL1 Thallium Assay with inducible stable clones of HEK 293 cells. The assay is classed as cell-based. The procedure, abridged: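 Tetracycline-inducible HEK293 T-Rex clone G1 DC3.25 expressing G1 APOL1, plated at 26000 cells/well in Opti-MEM with tetracycline induction. APOL1 pore activity read on FLIPR as fluorescence increase from Tl+ influx into cells loaded with a Tl+-sensitive AM-ester dye.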

[1] abbreviates: HEK 293 T-Rex cells expressing G1 APOL1, read-out: Thallium Assay (IC50).
The mark [2] stands for this setting: Table 24, Compounds 287 to 465, read-out: Thallium Assay (IC50).

Turning to `CC1C[C@H](NC(=O)[C@H]2C[C@H](c3c(-c4ccc(F)cc4)[nH]c4c(F)cc(F)cc43)C2)C(=O)N1` (mixture of isomers) [Compound 84], the half-inhibitory concentration (IC50) under setting [1] was greater than 1 µM.

Take `CC(O)CN(C)C(=O)[C@H]1C[C@H](c2c(-c3ccc(F)cc3)[nH]c3c(F)cc(F)cc32)C1` (some centres unmarked) [Compound 90]: the IC50 under setting [1] is greater than 1 µM.

On to `NC(=O)CNCC1CC(c2c(-c3ccc(F)cc3)[nH]c3c(F)cc(F)cc23)C1` (centres unmarked) [Compound 433, 2-(((3-(5,7-difluoro-2-(4-fluorophenyl)-1H-indol-3-yl)cyclobutyl)methyl)amino)acetamide], for which, under setting [2], the IC50 is less than 0.25 µM.

With `O=C(OC1CN(C(=O)[C@H]2C[C@H](c3c(-c4ccc(F)cc4)[nH]c4c(F)cc(F)cc43)C2)C1)C1CCOCC1` [Compound 85], under setting [1], the IC50 is 0.25 to 1 µM.

For the compound `O=C(NCC1CC(F)(F)C1)[C@H]1C[C@H](c2c(-c3ccc(F)cc3)[nH]c3c(F)cc(F)cc32)C1` [Compound 41], the IC50 under setting [1] was greater than 1 µM.

Take `Cc1cc(CNC(=O)[C@H]2C[C@H](c3c(-c4ccc(F)cc4)[nH]c4c(F)cc(F)cc43)C2)nn1C` [Compound 73]: the IC50 under setting [1] was greater than 1 µM.

`NC(=O)C1(NC(=O)[C@H]2C[C@H](c3c(-c4ccc(F)cc4)[nH]c4c(F)cc(F)cc43)C2)CC1` [Compound 56]: the IC50 under setting [1] lay within 0.25 to 1 µM.

With `CCOCC1(CNC(=O)[C@H]2C[C@H](c3c(-c4ccc(F)cc4)[nH]c4c(F)cc(F)cc43)C2)CC1` [Compound 55], the IC50 under setting [1] was greater than 1 µM.

`NCC(O)CNC(=O)[C@H]1C[C@H](c2c(-c3ccc(F)cc3)[nH]c3c(F)cc(F)cc32)C1` (some centres unmarked) [Compound 3]: the IC50 under setting [1] lay in the range of 0.25 to 1 µM.

As to `Cn1cnc(CNC(=O)[C@H]2C[C@H](c3c(-c4ccc(F)cc4)[nH]c4c(F)cc(F)cc43)C2)c1` [Compound 48], the IC50 under setting [1] was less than 0.25 µM.

With `C[C@@H](NC(=O)[C@H]1C[C@H](c2c(-c3ccc(F)cc3)[nH]c3c(F)cc(F)cc32)C1)C(=O)N(C)C` [Compound 61], under setting [1], the IC50 is greater than 1 µM.

For the compound `NC(=O)CNC(=O)[C@H]1C[C@H](c2c(-c3ccc(F)cc3)[nH]c3c(F)cc(F)cc32)C1` [Compound 1, N-(2-amino-2-oxo-ethyl)-3-[5,7-difluoro-2-(4-fluorophenyl)-1H-indol-3-yl]cyclobutanecarboxamide], the 50% inhibitory concentration (IC50) under setting [1] is less than 0.25 µM.

For `C[C@H](NC(=O)[C@H]1C[C@H](c2c(-c3ccc(F)cc3)[nH]c3c(F)cc(F)cc32)C1)C(=O)N(C)C` [Compound 65], the half-maximal inhibitory concentration (IC50) under setting [1] is 0.25 to 1 µM.

As to `O=C([C@H]1C[C@H](c2c(-c3ccc(F)cc3)[nH]c3c(F)cc(F)cc32)C1)N1CCCCC1CCO` (some centres unmarked) [Compound 94], the IC50 under setting [1] was greater than 1 µM.

As for `COCc1cc(CNC(=O)[C@H]2C[C@H](c3c(-c4ccc(F)cc4)[nH]c4c(F)cc(F)cc43)C2)n[nH]1` [Compound 72], the IC50 under setting [1] was greater than 1 µM.

On to `O=C(CNC(=O)[C@H]1C[C@H](c2c(-c3ccc(F)cc3)[nH]c3c(F)cc(F)cc32)C1)NC1CC1` [Compound 50], for which, under setting [1], the concentration for half-maximal inhibition (IC50) is greater than 1 µM.

For the compound `CC1(O)CN(C(=O)[C@H]2C[C@H](c3c(-c4ccc(F)cc4)[nH]c4c(F)cc(F)cc43)C2)C1` [Compound 74], under setting [1], the concentration for half-maximal inhibition (IC50) was 0.25 to 1 µM.

Turning to `NCCCNC(=O)[C@H]1C[C@H](c2c(-c3ccc(F)cc3)[nH]c3c(F)cc(F)cc32)C1` [Compound 4], under setting [1], the IC50 fell in the range of 0.25 to 1 µM.

Regarding `COCC1(CNC(=O)[C@H]2C[C@H](c3c(-c4ccc(F)cc4)[nH]c4c(F)cc(F)cc43)C2)CC1` [Compound 53], under setting [1], the IC50 was greater than 1 µM.

`CC(N)(C(=O)NC(=O)[C@H]1C[C@H](c2c(-c3ccc(F)cc3)[nH]c3c(F)cc(F)cc32)C1)C(F)(F)F` (some centres unmarked) [Compound 60]: the IC50 under setting [1] is greater than 1 µM.

Consider `O=C(NCC1(O)CCCCC1)[C@H]1C[C@H](c2c(-c3ccc(F)cc3)[nH]c3c(F)cc(F)cc32)C1` [Compound 80], for which the IC50 under setting [1] is greater than 1 µM.

With `CN1CCN(C(=O)CNC(=O)[C@H]2C[C@H](c3c(-c4ccc(F)cc4)[nH]c4c(F)cc(F)cc43)C2)CC1` [Compound 67], the IC50 under setting [1] is greater than 1 µM.

In the case of `Cn1ccc(CNC(=O)[C@H]2C[C@H](c3c(-c4ccc(F)cc4)[nH]c4c(F)cc(F)cc43)C2)n1` [Compound 71], under setting [1], the IC50 lay in the range of 0.25 to 1 µM.

For `CN(C)C(=O)CN(C)C(=O)[C@H]1C[C@H](c2c(-c3ccc(F)cc3)[nH]c3c(F)cc(F)cc32)C1` [Compound 62], the IC50 under setting [1] is 0.25 to 1 µM.

Consider `CC(C)(NC(=O)[C@H]1C[C@H](c2c(-c3ccc(F)cc3)[nH]c3c(F)cc(F)cc32)C1)C(=O)N1CCOCC1` [Compound 66], for which, under setting [1], the IC50 is greater than 1 µM.

Consider `NC(=O)CC1CC(c2c(-c3ccc(F)cc3)[nH]c3c(F)cc(F)cc23)C1` (centres unmarked) [Compound 455], for which the IC50 under setting [2] is less than 0.25 µM.

For `CC(NC(=O)[C@H]1C[C@H](c2c(-c3ccc(F)cc3)[nH]c3c(F)cc(F)cc32)C1)c1ccn[nH]1` (mixture of isomers) [Compound 81], under setting [1], the IC50 was 0.25 to 1 µM.

As to `NC(=O)C1CCCCN1C(=O)[C@H]1C[C@H](c2c(-c3ccc(F)cc3)[nH]c3c(F)cc(F)cc32)C1` (some centres unmarked) [Compound 92], under setting [1], the IC50 is greater than 1 µM.

Turning to `O=C(NCC1(CO)COC1)[C@H]1C[C@H](c2c(-c3ccc(F)cc3)[nH]c3c(F)cc(F)cc32)C1` [Compound 83], the IC50 under setting [1] was greater than 1 µM.

In the case of `O=C1NCCC1NC(=O)[C@H]1C[C@H](c2c(-c3ccc(F)cc3)[nH]c3c(F)cc(F)cc32)C1` (some centres unmarked) [Compound 2], the IC50 under setting [1] is less than 0.25 µM.

Regarding `CN(CC1(CO)CC1)C(=O)[C@H]1C[C@H](c2c(-c3ccc(F)cc3)[nH]c3c(F)cc(F)cc32)C1` [Compound 49], the IC50 under setting [1] is greater than 1 µM.

With `NC(=O)CNC[C@H]1C[C@@H](c2c(-c3ccc(F)cc3)[nH]c3c(F)cc(F)cc32)C1` [Compound 447], the IC50 under setting [2] is less than 0.25 µM.

Where the note is “Thallium Assay (IC50), HEK 293 T-Rex cells expressing G1 APOL1”, `O=C([C@H]1C[C@H](c2c(-c3ccc(F)cc3)[nH]c3c(F)cc(F)cc32)C1)N1CCC(O)(O)CC1` [Compound 127] displayed an IC50 greater than 1 µM.

With `COCC1(NC(=O)[C@H]2C[C@H](c3c(-c4ccc(F)cc4)[nH]c4c(F)cc(F)cc43)C2)CC1` [Compound 54], the IC50 under setting [1] was less than 0.25 µM.

For `CC(=O)NC1CCCN(C(=O)[C@H]2C[C@H](c3c(-c4ccc(F)cc4)[nH]c4c(F)cc(F)cc43)C2)C1` (some centres unmarked) [Compound 91], the IC50 under setting [1] is greater than 1 µM.

Take `CC(NC(=O)[C@H]1C[C@H](c2c(-c3ccc(F)cc3)[nH]c3c(F)cc(F)cc32)C1)c1ccnn1C` (mixture of isomers) [Compound 76]: under setting [1], the IC50 is greater than 1 µM.

As to `O=C([C@H]1C[C@H](c2c(-c3ccc(F)cc3)[nH]c3c(F)cc(F)cc32)C1)N(CCO)C1CC1` [Compound 52], the IC50 under setting [1] lay in the range of 0.25 to 1 µM.

Take `CC(NC(=O)[C@H]1C[C@H](c2c(-c3ccc(F)cc3)[nH]c3c(F)cc(F)cc32)C1)c1ccn(C)n1` (mixture of isomers) [Compound 75]: the IC50 under setting [1] lay in the range of 0.25 to 1 µM.

Turning to `C[C@H](O)CNC(=O)[C@H]1C[C@H](c2c(-c3ccc(F)cc3)[nH]c3c(F)cc(F)cc32)C1` [Compound 82], under setting [1], the IC50 lay in the range of 0.25 to 1 µM.

As for `CC(C)(O)C1CN(C(=O)[C@H]2C[C@H](c3c(-c4ccc(F)cc4)[nH]c4c(F)cc(F)cc43)C2)C1` [Compound 86], the IC50 under setting [1] is greater than 1 µM.

Consider `O=C(NCC1(O)CCCC1)[C@H]1C[C@H](c2c(-c3ccc(F)cc3)[nH]c3c(F)cc(F)cc32)C1` [Compound 69], for which the IC50 under setting [1] is greater than 1 µM.

Regarding `CN(CCO)C(=O)[C@H]1C[C@H](c2c(-c3ccc(F)cc3)[nH]c3c(F)cc(F)cc32)C1` [Compound 79], the IC50 under setting [1] was less than 0.25 µM.

Take `CC(NC(=O)[C@H]1C[C@H](c2c(-c3ccc(F)cc3)[nH]c3c(F)cc(F)cc32)C1)C(N)=O` (mixture of isomers) [Compound 68]: the IC50 under setting [1] was 0.25 to 1 µM.

In the case of `O=C(NCC1CCOCC1)[C@H]1C[C@H](c2c(-c3ccc(F)cc3)[nH]c3c(F)cc(F)cc32)C1` [Compound 42], the IC50 under setting [1] is greater than 1 µM.

For `O=C(NCCO)[C@H]1C[C@H](c2c(-c3ccc(F)cc3)[nH]c3c(F)cc(F)cc32)C1` [Compound 46, 3-[5,7-difluoro-2-(4-fluorophenyl)-1H-indol-3-yl]-N-(2-hydroxyethyl)cyclobutanecarboxamide], the IC50 under setting [1] was less than 0.25 µM.

Take `O=C(NC(CO)CF)[C@H]1C[C@H](c2c(-c3ccc(F)cc3)[nH]c3c(F)cc(F)cc32)C1` (some centres unmarked) [Compound 78]: the IC50 under setting [1] was less than 0.25 µM.

Take `O=C(NC1(CO)CC1)[C@H]1C[C@H](c2c(-c3ccc(F)cc3)[nH]c3c(F)cc(F)cc32)C1` [Compound 47]: under setting [1], the IC50 was in the range of 0.25 to 1 µM.

Take `O=C1CC(NC(=O)[C@H]2C[C@H](c3c(-c4ccc(F)cc4)[nH]c4c(F)cc(F)cc43)C2)CN1` (mixture of isomers) [Compound 44]: the IC50 under setting [1] is greater than 1 µM.

As for `CN1CC(CNC(=O)[C@H]2C[C@H](c3c(-c4ccc(F)cc4)[nH]c4c(F)cc(F)cc43)C2)CC1=O` (some centres unmarked) [Compound 70], the IC50 under setting [1] was greater than 1 µM.

Regarding `CN(C(=O)[C@H]1C[C@H](c2c(-c3ccc(F)cc3)[nH]c3c(F)cc(F)cc32)C1)C1(CO)CC1` [Compound 58], the IC50 under setting [1] fell in the range of 0.25 to 1 µM.

For `O=C([C@H]1C[C@H](c2c(-c3ccc(F)cc3)[nH]c3c(F)cc(F)cc32)C1)N1CCC(O)(CO)CC1` [Compound 87], the IC50 under setting [1] is greater than 1 µM.

For the compound `O=C([C@H]1C[C@H](c2c(-c3ccc(F)cc3)[nH]c3c(F)cc(F)cc32)C1)N1C[C@@H](CO)OCC12CC2` [Compound 57], the IC50 under setting [1] was greater than 1 µM.

On to `NC(=O)[C@@H]1CCCN1C(=O)[C@H]1C[C@H](c2c(-c3ccc(F)cc3)[nH]c3c(F)cc(F)cc32)C1` [Compound 88], for which the IC50 under setting [1] is greater than 1 µM.

A word on the IC50: it is the concentration that gives 50% inhibition.
